Reference: ChEMBL document CHEMBL1201862, “PubChem BioAssay data set” (2004)
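Results reflect a 48-hour exposure of cells in 96-well plates to compound at five concentrations. The concentration for 50% growth inhibition is given as GI50.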 The source made the active and inactive calls. Cut-off read from the data, not from the text of the source: active = GI50 up to about 1.1 µM and inactive = higher.

What was measured:
Experiment in all cases: NCI-60 cell line screen, 48 h
DU-145 = tested on: DU-145
NCI-H23 = tested on: NCI-H23
LOX IMVI = tested on: LOX IMVI
NCI-H522 = tested on: NCI-H522
EKVX = tested on: EKVX
CCRF-CEM = tested on: CCRF-CEM
UACC-62 = tested on: UACC-62
MDA-MB-435 = tested on: MDA-MB-435
SF-268 = tested on: SF-268
Malme-3M = tested on: Malme-3M
TK-10 = tested on: TK-10
HCC 2998 = tested on: HCC 2998
MDA-N = tested on: MDA-N
OVCAR-8 = tested on: OVCAR-8
CAKI-1 = tested on: CAKI-1
OVCAR-3 = tested on: OVCAR-3
IGROV-1 = tested on: IGROV-1
SK-MEL-2 = tested on: SK-MEL-2
HCT-116 = tested on: HCT-116
HOP-62 = tested on: HOP-62

Compound	GI50 (DU-145)	GI50 (NCI-H23)	GI50 (LOX IMVI)	GI50 (NCI-H522)	GI50 (EKVX)	GI50 (CCRF-CEM)	GI50 (UACC-62)	GI50 (MDA-MB-435)	GI50 (SF-268)	GI50 (Malme-3M)	GI50 (TK-10)	GI50 (HCC 2998)	GI50 (MDA-N)	GI50 (OVCAR-8)	GI50 (CAKI-1)	GI50 (OVCAR-3)	GI50 (IGROV-1)	GI50 (SK-MEL-2)	GI50 (HCT-116)	GI50 (HOP-62)
SC1=NC2(CCCCCC2)NN1c1ccccc1	0.0708 µM (active)	9.23 µM (inactive)	0.82 µM (active)	> 100 µM (inactive)	36.5 µM (inactive)	0.0664 µM (active)	0.0208 µM (active)	3.61 µM (inactive)	0.184 µM (active)	16.4 µM (inactive)	> 28.6 µM (inactive)	0.386 µM (active)	3.09 µM (inactive)	15.5 µM (inactive)	0.218 µM (active)	9.91 µM (inactive)	> 39.4 µM (inactive)			
COc1ccc(OC)c2c1-c1nnnn1CCC2(C)C	> 100 µM (inactive)	> 100 µM (inactive)	> 100 µM (inactive)	> 100 µM (inactive)	> 100 µM (inactive)	> 100 µM (inactive)	> 100 µM (inactive)	> 100 µM (inactive)	> 100 µM (inactive)	> 100 µM (inactive)	> 100 µM (inactive)	> 100 µM (inactive)	> 100 µM (inactive)	> 100 µM (inactive)		> 100 µM (inactive)	> 100 µM (inactive)	> 100 µM (inactive)	> 100 µM (inactive)	> 100 µM (inactive)
O=C(NC1(C(=O)O)CC1c1ccccc1)c1ccccc1 (stereo not given)	> 100 µM (inactive)	> 100 µM (inactive)	> 100 µM (inactive)	> 100 µM (inactive)	> 100 µM (inactive)		> 100 µM (inactive)	> 100 µM (inactive)	> 100 µM (inactive)	> 100 µM (inactive)	> 100 µM (inactive)	> 100 µM (inactive)	> 100 µM (inactive)	> 100 µM (inactive)	> 100 µM (inactive)	> 100 µM (inactive)	> 100 µM (inactive)	> 100 µM (inactive)	> 100 µM (inactive)	> 100 µM (inactive)
CN(C)CCOc1ccc([N+](=O)[O-])c2cccnc12	> 100 µM (inactive)	> 100 µM (inactive)		61.9 µM (inactive)		> 100 µM (inactive)	> 100 µM (inactive)	> 100 µM (inactive)	> 100 µM (inactive)	> 100 µM (inactive)	> 100 µM (inactive)	> 100 µM (inactive)	79.1 µM (inactive)	> 100 µM (inactive)	> 100 µM (inactive)	> 100 µM (inactive)	> 100 µM (inactive)	> 100 µM (inactive)	35.6 µM (inactive)	> 100 µM (inactive)
CCCN(C(=O)c1c(Cl)nnc(Cl)c1C(=O)c1cc(Cl)nnc1Cl)c1cc(Cl)nnc1Cl	7.91 µM (inactive)	5.77 µM (inactive)	5.47 µM (inactive)	3.24 µM (inactive)	12.7 µM (inactive)	2.92 µM (inactive)	10.6 µM (inactive)	6.03 µM (inactive)	4.35 µM (inactive)		18 µM (inactive)	16.9 µM (inactive)	6.7 µM (inactive)	2.29 µM (inactive)	7.23 µM (inactive)	10.9 µM (inactive)	7.52 µM (inactive)	14.4 µM (inactive)	6.87 µM (inactive)	19 µM (inactive)
Cc1occc1C(=S)Nc1ccc(Cl)c(C(=O)OCC(C)C)c1	18.3 µM (inactive)	17.1 µM (inactive)	14.9 µM (inactive)	14.1 µM (inactive)	15.6 µM (inactive)	26.5 µM (inactive)	12.6 µM (inactive)	16.5 µM (inactive)	21.4 µM (inactive)	19.3 µM (inactive)	17.3 µM (inactive)	18.9 µM (inactive)	21.1 µM (inactive)	15.8 µM (inactive)	21.5 µM (inactive)	22.4 µM (inactive)	18.1 µM (inactive)	19.5 µM (inactive)	14.4 µM (inactive)	
CCC1=NC(N/N=C/c2ccco2)=N/C1=C\c1ccccc1O	55.6 µM (inactive)	28.8 µM (inactive)	35 µM (inactive)	21.8 µM (inactive)	26.7 µM (inactive)	12.7 µM (inactive)	22.3 µM (inactive)	29.5 µM (inactive)	21.8 µM (inactive)	31 µM (inactive)	59.4 µM (inactive)	20.8 µM (inactive)	50.4 µM (inactive)	25.4 µM (inactive)	> 100 µM (inactive)		26.4 µM (inactive)	25.9 µM (inactive)	23.7 µM (inactive)	76.4 µM (inactive)
